Results as given in article PMC5627448, “Pharmacokinetics of carfilzomib in patients with advanced malignancies and varying degrees of hepatic impairment: an open-label, single-arm, phase 1 study” (Experimental Hematology & Oncology, 2017).

Tests used:
[1] = system: relapsed or progressive advanced malignancies; assay: Efficacy: best overall response as determined by investigator (RECIST 1.1 / IMWG-URC); type: in vivo, human; conditions: for Best overall response: complete response / Best overall response: partial response / Best overall response: progressive disease / Best overall response: stable disease / Best overall response: not evaluable: response-evaluable population
Experimental: (§1) Blood samples were collected to measure PK and plasma concentration of carfilzomib and its major metabolites (PR-389/M14, PR-413/M15, and PR-519/M16). Samples were collected on day 16 of cycle 1 and day 1 of cycle 2 (or on subsequent infusion days when the intended dose levels were administered) before infusion; at 15 min after start of infusion; within 2 min before end of infusion; and at 5, 15, and 30 min (±2 min for each); and at 1, 2, and 4 h (±5 min for each) after end of the infusion (Fig. 1). Safety was assessed throughout the study and included the monitoring of adverse events (AEs) using National Cancer Institute-Common Terminology Criteria for Adverse Events, version 4.03 (NCI-CTCAE v4.03), clinical laboratory evaluations, and vital signs; echocardiograms and physical examinations were also performed. The exact type and frequency of disease or tumor response assessments depended upon tumor type and was assessed by the investigator using the appropriate measure for the underlying malignancy, including Response Evaluation Criteria in Solid Tumours version 1.1.
For multiple myeloma patients, efficacy was assessed on day 1 of each cycle during treatment. For solid tumor patients, efficacy was assessed on day 1 of every other cycle [i.e., on day 1 (±7 days) of cycles 3, 5, 7, 9, etc.] during treatment.
(§2) Safety was assessed for patients who received any carfilzomib dose. AEs were mapped to a preferred term and system organ class using MedDRA and were graded using the NCI-CTCAE v4.03. ORR was summarized along with 95% exact binomial CIs by cohorts.

[2] = Safety: treatment-emergent adverse events, discontinuations and deaths (NCI-CTCAE v4.03) in patients by hepatic function; type: in vivo, human
Experimental: as §1, §2

[3] = cited from earlier work
Excerpt: Carfilzomib is an irreversible, proteasome inhibitor approved in the United States of America (USA) and Europe for the treatment of relapsed or refractory multiple myeloma in combination with lenalidomide + dexamethasone or with dexamethasone alone. […] In the normal hepatic function cohort, one outlier contributed to the extremely high variability. […] [6].

[4] = Plasma pharmacokinetics of carfilzomib and its major metabolites after 30-min IV infusion in patients with normal or impaired hepatic function; conditions: human, in vivo
Experimental: This was a phase 1, multicenter, open-label, nonrandomized, comparative PK study of carfilzomib in patients with normal hepatic function or mild-to-moderate hepatic impairment. The study was conducted at 12 sites in the USA, United Kingdom, France, and the Netherlands. […] Exploratory objectives included evaluation of overall response rate (ORR) and duration of response (DOR).
Patients received carfilzomib as a 30-min IV infusion on days 1, 2, 8, 9, 15, and 16 of 28-day cycles (Fig. 1). All patients were to receive doses of 20 mg/m^2 on days 1 and 2 of cycle 1. […]
as §1, with “Samples were collected on day 16 of cycle 1 and day 1 of cycle 2 (or on subsequent infusion days when the intended dose levels were administered) before infusion; at 15 min after start of infusion; within 2 min before end of infusion; and at 5, 15, and 30 min (±2 min for each); and at 1, 2, and 4 h (±5 min for each) after end of the infusion (Fig. 1).” left out, “1.1. […]” for “1.1.”

[5] = normal hepatic function, n = 10
[6] = normal hepatic function, n = 11
[7] = IV administration, patients with solid tumors

For CC(C)C[C@H](NC(=O)[C@H](CCc1ccccc1)NC(=O)CN1CCOCC1)C(=O)N[C@@H](Cc1ccccc1)C(=O)N[C@@H](CC(C)C)C(=O)[C@@]1(C)CO1 [carfilzomib], the “Best overall response: complete response” value ([1]; mild impairment, n = 15) was 0 (0.0) n (%), the “Best overall response: partial response” value ([1]; mild impairment, n = 15) was 0 (0.0) n (%) and the “Best overall response: progressive disease” value ([1]; mild impairment, n = 15) was 12 (80.0) n (%). The “Best overall response: stable disease” value ([1]; mild impairment, n = 15) was 1 (6.7) n (%), the “Best overall response: complete response” value ([1]; moderate impairment, n = 9) was 0 (0.0) n (%) and the “Best overall response: not evaluable” value ([1]; moderate impairment, n = 9) was 3 (33.3) n (%). For the same molecule, the “Best overall response: partial response” value ([1]; moderate impairment, n = 9) was 0 (0.0) n (%), the “Best overall response: progressive disease” value ([1]; moderate impairment, n = 9) was 4 (44.4) n (%) and the “Best overall response: stable disease” value ([1]; moderate impairment, n = 9) was 2 (22.2) n (%). The “Best overall response: complete response” value [1, 5] was 0 (0.0) n (%), the “Best overall response: not evaluable” value [1, 5] was 0 (0.0) n (%) and the “Best overall response: partial response” value [1, 5] was 1 (10.0) n (%). For the same molecule, the “Best overall response: progressive disease” value [1, 5] was 5 (50.0) n (%), the “Best overall response: stable disease” value [1, 5] was 4 (40.0) n (%) and the “DOR of partial response” value ([1]; one multiple myeloma patient with normal hepatic function) was at least 3 months. For the same molecule, the ORR ([1]; overall study population, n = 34, 95% CI 0.1–15.3%) was 2.9%, the “Best overall response: complete response” value ([1]; total, n = 34) was 0 (0.0) n (%) and the “Best overall response: not evaluable” value ([1]; total, n = 34) was 5 (14.7) n (%). The “Best overall response: partial response” value ([1]; total, n = 34) was 1 (2.9) n (%), the “Best overall response: progressive disease” value ([1]; total, n = 34) was 21 (61.8) n (%) and the “Best overall response: stable disease” value ([1]; total, n = 34) was 7 (20.6) n (%). For the same molecule, the “Deaths considered related to treatment” value ([2]; both in mild hepatic impairment group: gastrointestinal hemorrhage and acute respiratory distress syndrome) was “Two”, the “AE resulting in treatment discontinuation: increased blood bilirubin” value ([2]; human, in vivo) was 2 patients and the “AE resulting in treatment discontinuation: pneumonitis” value ([2]; human, in vivo) was “one”. The “Grade ≥3 AEs considered related to treatment, patients” value ([2]; human, in vivo) was 33%, the “Grade ≥3 AEs, patients” value ([2]; human, in vivo) was 76% and the “Serious AE: acute kidney injury” value ([2]; human, in vivo) was “three”. The “Serious AE: anemia” value ([2]; human, in vivo) was “two”, the “Serious AE: ascites” value ([2]; human, in vivo) was “three” and the “Serious AE: hepatic encephalopathy” value ([2]; human, in vivo) was “two”. The “Serious AE: increased blood bilirubin” value ([2]; human, in vivo) was “two”, the “Serious AE: lower respiratory tract infection” value ([2]; human, in vivo) was “two” and the “Serious AE: pneumonia” value ([2]; human, in vivo) was “two”. The “Serious AE: sepsis” value ([2]; human, in vivo) was “three”, the “Treatment-emergent AEs, patients” value ([2]; human, in vivo) was 98% and the “Treatment discontinuation due to death” value ([2]; mild impairment, n = 17) was 2 n. The “Treatment discontinuation due to disease progression” value ([2]; mild impairment, n = 17) was 13 n, the “Treatment discontinuation due to death” value ([2]; moderate impairment, n = 14) was 1 n and the “Treatment discontinuation due to disease progression” value ([2]; moderate impairment, n = 14) was 7 n. For the same molecule, the “Treatment discontinuation due to death” value [2, 6] was 1 n, the “Treatment discontinuation due to disease progression” value [2, 6] was 7 n and the “Deaths within 30 days after the last dose” value ([2]; safety population) was “Nine”. For the same molecule, the “Treatment discontinuation due to death” value ([2]; severe impairment, n = 4) was 2 n, the “Treatment discontinuation due to disease progression” value ([2]; severe impairment, n = 4) was 2 n and the “Treatment discontinuation due to death” value ([2]; total, N = 46) was 6 n. For the same molecule, the “Treatment discontinuation due to disease progression” value ([2]; total, N = 46) was 29 n, the “Deaths among severe hepatic impairment patients” value ([2]; two progressive disease, two fatal AEs unrelated to treatment) was “four” and the “Cmax, historical data” value ([3]; 56 mg/m^2, geometric mean (geometric CV%)) was 2079 (44%) ng/mL. For the same molecule, the Estimated clearance [3, 7] was “high and exceeds hepatic blood flow”, the “Time within which most of the drug is eliminated from the plasma compartment” value [3, 7] was at most 30 min and the “Difference in PK parameters, mild hepatic impairment vs normal hepatic function” value ([3]; population PK analysis, mild N = 143, normal N = 474) was “no statistically significant differences”. For the same molecule, the “Higher carfilzomib AUC vs. normal hepatic function patients” value [4] was 20–50% and the “Mean T1/2” value [4] was 30 to 42 min.
